Test results published in patent US20090099167A1, “Organic compounds” (Novartis Institutes for Biomedical Research, priority 2004, published 2009).

Legend:
Assay type in all cases: biochemical
c-Src kinase = c-Src kinase (Homo sapiens, UniProt P12931); experiment: c-Src kinase inhibition; settings: Table 4; read-out: s-Scr, activity (IC50 for kinase inhibition)
From the text: An appropriate assay is described in Andrejauskas-Buchdunger et al., Cancer Res. 52, 5353-8 (1992).

human Flt-3 = biological target: T1, human Flt-3 (Homo sapiens, UniProt P36888); experiment: Flt3 kinase inhibition, GST-Flt-3, 33P incorporation into poly(Glu,Tyr); settings: Table 4; read-out: Flt-3, activity (IC50 for kinase inhibition)
T1 construct: expressing the amino acid region amino acids 563-993 of the cytoplasmic kinase domain of human Flt-3; made in house; host or cells: Sf9 (baculovirus)
T1 sequence (P36888 563-993): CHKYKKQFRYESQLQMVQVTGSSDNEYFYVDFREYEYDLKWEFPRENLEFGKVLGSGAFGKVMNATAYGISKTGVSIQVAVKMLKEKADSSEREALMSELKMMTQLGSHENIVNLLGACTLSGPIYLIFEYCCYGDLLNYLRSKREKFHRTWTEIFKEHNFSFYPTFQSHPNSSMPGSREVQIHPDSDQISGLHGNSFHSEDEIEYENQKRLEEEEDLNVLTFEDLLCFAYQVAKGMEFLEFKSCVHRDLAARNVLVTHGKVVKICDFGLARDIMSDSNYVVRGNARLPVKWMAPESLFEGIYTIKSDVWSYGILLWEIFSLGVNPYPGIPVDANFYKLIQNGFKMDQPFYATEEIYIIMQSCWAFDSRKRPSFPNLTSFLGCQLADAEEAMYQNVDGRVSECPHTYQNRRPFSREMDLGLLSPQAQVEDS
Procedure: The compounds to be tested are then diluted in culture medium (without FCS, with 0.1% bovine serum albumin) and added to the cells. (Controls comprise medium without test compounds). After two hours' incubation at 37° C., recombinant VEGF is added; the final VEGF concentration is 20 ng/ml). After a further five minutes incubation at 37° C., the cells are washed twice with ice-cold PBS (phosphate-buffered saline) and immediately lysed in 100 μl lysis buffer per well. The lysates are then centrifuged to remove the cell nuclei, and the protein concentrations of the supernatants are determined using a commercial protein assay (BIORAD). The lysates can then either be immediately used or, if necessary, stored at −20° C. A sandwich ELISA is carried out to measure the VEGF-R2 phosphorylation: a monoclonal antibody to VEGF-R2 (for example Mab 1495.12.14; ProQinase, Freiburg, Germany) is immobilized on black ELISA plates (OptiPlate™ HTRF-96 from Packard). The plates are then washed and the remaining free protein-binding sites are saturated with 3% TopBlock® (Juro, Cat. # TB232010) in phosphate buffered saline with Tween 20® (polyoxyethylen(20)-sorbitane monolaurate, ICI/Uniquema) (PBST). The cell lysates (20 μg protein per well) are then incubated in these plates overnight at 4° C. together with an antiphosphotyrosine antibody coupled with alkaline phosphatase (PY20:AP from Zymed). […] The luminescence is measured in a Packard Top Count Microplate Scintillation Counter. The difference between the signal of the positive control (stimulated with VEGF) and that of the negative control (not stimulated with VEGF) corresponds to VEGF-induced VEGF-R2 phosphorylation (=100%). The activity of the tested substances is calculated as percent inhibition of VEGF-induced VEGF-R2 phosphorylation, wherein the concentration of substance that induces half the maximum inhibition is defined as the IC50 (inhibitory dose for 50% inhibition). […] Flt3 kinase inhibition is determined as follows: The baculovirus donor vector pFbacG01 (GIBCO) is used to generate a recombinant baculovirus expressing the amino acid region amino acids 563-993 of the cytoplasmic kinase domain of human Flt-3. The coding sequence for the cytoplasmic domain of Flt-3 is amplified by PCR from human c-DNA libraries (Clontech). The amplified DNA fragments and the pFbacG01 vector are made compatible for ligation by digestion with BamH1 and HindIII. Ligation of these DNA fragments results in the baculovirus donor plasmid Flt-3(1.1). The production of the viruses, the expression of proteins in Sf9 cells and the purification of the GST-fused proteins are performed as follows: Production of virus: Transfer vector (pFbacG01-Flt-3) containing the Flt-3 kinase domain is transfected into the DH10Bac cell line (GIBCO) and the transfected cells are plated on selective agar plates. Colonies without insertion of the fusion sequence into the viral genome (carried by the bacteria) are blue. Single white colonies are picked and viral DNA (bacmid) is isolated from the bacteria by standard plasmid purification procedures. Sf9 or Sf21 cells (American Type Culture Collection) are then transfected in flasks with the viral DNA using Cellfectin reagent. Determination of small scale protein expression in Sf9 cells: Virus containing media is collected from the transfected cell culture and used for infection to increase its titre. Virus containing media obtained after two rounds of infection is used for large-scale protein expression. For large-scale protein expression 100 cm^2 round tissue culture plates are seeded with 5×10^7 cells/plate and infected with 1 mL of virus-containing media (approx. 5 MOIs). After 3 days the cells are scraped off the plate and centrifuged at 500 rpm for 5 min. Cell pellets from 10-20, 100 cm^2 plates, are resuspended in 50 mL of ice-cold lysis buffer (25 mMTris-HCl, pH 7.5, 2 mM EDTA, 1% NP-40, 1 mM DTT, 1 mM PMSF). The cells are stirred on ice for 15 min and then centrifuged at 5000 rpms for 20 min. […]

c-Abl kinase = biological target: T2, c-Abl kinase (Homo sapiens, UniProt P00519); experiment: c-Abl protein-tyrosine kinase filter binding assay; settings: Table 4; read-out: c-abl, activity (IC50 for kinase inhibition)
T2 construct: The His-tagged kinase domain of c-Abl is cloned and expressed in the baculovirus/Sf9 system; His; made in house; host or cells: Sf9 (baculovirus)
T2 sequence (P00519 242-493 limits assumed): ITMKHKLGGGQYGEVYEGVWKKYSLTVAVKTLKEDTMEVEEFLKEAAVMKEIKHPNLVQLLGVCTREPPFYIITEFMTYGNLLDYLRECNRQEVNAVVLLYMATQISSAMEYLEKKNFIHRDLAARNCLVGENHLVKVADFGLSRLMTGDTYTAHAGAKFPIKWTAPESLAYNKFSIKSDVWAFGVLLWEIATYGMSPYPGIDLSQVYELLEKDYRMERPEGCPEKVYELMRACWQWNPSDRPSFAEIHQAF
Procedure: The His-tagged kinase domain of c-Abl is cloned and expressed in the baculovirus/Sf9 system as described by Bhat et al. in J. Biol. Chem. 1997; 272:16170-16175. A protein of 37 kD (c-Abl kinase) is purified by a two-step procedure over a Cobalt metal chelate column followed by an anion exchange column with a yield of 1-2 mg/L of Sf9 cells (Bhat et al., reference cited). The purity of the c-Abl kinase is >90% as judged by SDS-PAGE after Coomassie blue staining. The assay contains (total volume of 30 μL): c-Abl kinase (50 ng), 20 mM Tris.HCl, pH 7.5, 10 mM MgCl2, 10 μM Na3VO4, 1 mM DTT and 0.06 μCi/assay [γ^33 P]-ATP (5 μM ATP) using 30 μg/mL poly-Ala,Glu,Lys,Tyr-6:2:5:1 (Poly-AEKY, Sigma P1152) in the presence of 1% DMSO. Reactions are terminated by adding 10 μL of 250 mM EDTA and 30 μL of the reaction mixture is transferred onto Immobilon-PVDF membrane (Millipore, Bedford, Mass., USA) previously soaked for 5 min with methanol, rinsed with water, then soaked for 5 min with 0.5% H3PO4 and mounted on vacuum manifold with disconnected vacuum source. After spotting all samples, vacuum is connected and each well rinsed with 200 μL 0.5% H3PO4. Membranes are removed and washed on a shaker with 0.5% H3PO4 (4 times) and once with ethanol. Membranes are counted after drying at ambient temperature, mounting in Packard TopCount 96-well frame, and addition of 10 μL/well of Microscint™ (Packard).

[1] = biological target: T3, human insulin receptor (Ins-R) (Homo sapiens, UniProt P06213); experiment: Ins-R tyrosine kinase assay, GST-Ins-R; settings: Table 4; read-out: Ins-R, activity (IC50 for kinase inhibition)
T3 construct: encoding the amino acid region 919-1343 of the intra-cytoplasmic kinase domain of the human insulin receptor; made in house; host or cells: baculovirus (Bac-to-Bac)
T3 sequence (P06213 958-1382 limits assumed): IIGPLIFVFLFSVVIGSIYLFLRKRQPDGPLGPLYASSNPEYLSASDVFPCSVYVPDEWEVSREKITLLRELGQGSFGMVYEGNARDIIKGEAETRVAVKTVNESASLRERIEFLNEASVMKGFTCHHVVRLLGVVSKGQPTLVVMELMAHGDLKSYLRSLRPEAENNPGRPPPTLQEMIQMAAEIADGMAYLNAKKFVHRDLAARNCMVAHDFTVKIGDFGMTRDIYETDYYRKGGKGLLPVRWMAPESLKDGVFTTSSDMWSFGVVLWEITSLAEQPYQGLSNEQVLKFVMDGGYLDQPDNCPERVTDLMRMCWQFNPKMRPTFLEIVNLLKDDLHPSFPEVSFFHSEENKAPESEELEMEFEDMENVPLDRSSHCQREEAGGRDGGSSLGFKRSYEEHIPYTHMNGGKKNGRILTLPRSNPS
From the text: The inhibition of IGF-1R and Ins-R can be determined as follows: The baculovirus donor vector pfbgx3IGFIRcd is used to generate a recombinant baculovirus that expresses the amino acid region 950-1337 of the mature peptide cytoplasmic domain of the human IGF-IR. To generate the cDNA fragment encoding the amino acid region 919-1343 of the intra-cytoplasmic kinase domain of the human insulin receptor, pC5hInsR is used. The fragments of the human IGF-IR and Ins-R are cloned, expressed and small-scale purified as a factor Xa-cleavable glutathione-S-transferase (GST)-fusion protein using the Bac-to-Bac™ system (GIBCO BRL) of recombinant baculovirus generation. Virus containing media is collected from the transfected cell culture and used for infection to increase its titer. Virus containing media obtained after two rounds of infection is used for large-scale protein expression. Cell extracts are prepared and loaded onto a glutathione-Sepharose (Pharmacia) column. After washing, the GST-tagged proteins are then eluted with a glutathione-containing buffer. Purified protein is stored at −70° C. in elution buffer. Tyrosine protein kinase assays with purified GST-IGF-1R and GST-ins-R are carried in a final volume of 30 μl containing 20 mM Tris-HCl, pH 7.6, 10 mM MgCl2, 0.01 mM Na3VO4, 1% DMSO, 1 mM DTT, 3 μg/ml poly(Glu,Tyr) 4:1 and 10 μM ATP (γ-[^33P]-ATP 0.1 μCi). The assay is performed in 96-well plates at ambient temperature for 20 min and terminated by addition of 25 μl 0.05 M EDTA pH 7.0. An aliquot of 40 μl is spotted with a multichannel dispenser on Whatman P81 membranes mounted in a Millipore Microtiter filter manifold connected to a low vacuum source. After elimination of liquid, the membrane is transferred to a sequence of 4 washing baths containing 0.5% H3PO4 and one with EtOH (shaking incubation for 10 min each), dried, mounted onto a Hewlett Packard TopCount manifold added 10 μl Microscint® and counted. Compounds of formula (I) show up to 90% inhibition of Ins-R at 10,000 nM, preferably between 60-90% inhibition. The inhibition of Tek can be determined as follows: The procedure of the expression, purification and assay these kinases has been described. Fabbro et al., Pharmacol. Ther. 82(2-3) 293-301 (1999). In brief, the glutathione S-transferase (GST) gene from the pAcG1 vector (Pharmingen) is excised with EcoRV and EcoRI and inserted into the cloning site of the Fast-Bac baculoviral vector (GIBCO) creating a 5530 bp vector with N-terminal cloning sites derived from the pAcG1 fusion vector (FBG0). The C-terminal cloning site may be any cloning site (from the Fast-Bac vector) downstream of the N-terminal cloning site used. N-terminally GST-fused (pAcG1, Pharmingen) KDR, Flt-1, Flk-1, Tek and PDGFR-β kinase domains are obtained from ProQinase, Freiburg, Germany. Tek is recloned into the FBG1 vector by EcoRI excision and ligation into EcoRI digested FBG1 (FBG1-Tek). The coding sequences for the whole cytoplasmic domain of c-Kit (aa 544-976) and c-Fms (aa 538-972) are amplified by PCR from human uterus and from human bone marrow cDNA libraries (Clontech), respectively. The amplified DNA fragments are fused to GST by cloning them into FBG1 as BamHI-EcoRI insertions, to yield FBG1-c-Kit and FBG1-c-Fms. Tek is recloned into the FBG0 transfer vector by EcoRI excision and ligation into EcoRI digested FBG0 (FBG-Tie2/Tek). FGFR-1 and c-met kinase domains are obtained by PCR from human A431 cells. N-terminal primers contain an overhanging EcoRI site, while C-terminal primers contain a XhoI site to aid cloning into the transfer vectors. After digestion of both the PCR fragments and FBG0 the cleavage products are gel-purified and ligated together to form the kinase constructs (FBG-Met, FBG-FGFR-1).

Sequence of c-Src kinase (P12931 whole entry): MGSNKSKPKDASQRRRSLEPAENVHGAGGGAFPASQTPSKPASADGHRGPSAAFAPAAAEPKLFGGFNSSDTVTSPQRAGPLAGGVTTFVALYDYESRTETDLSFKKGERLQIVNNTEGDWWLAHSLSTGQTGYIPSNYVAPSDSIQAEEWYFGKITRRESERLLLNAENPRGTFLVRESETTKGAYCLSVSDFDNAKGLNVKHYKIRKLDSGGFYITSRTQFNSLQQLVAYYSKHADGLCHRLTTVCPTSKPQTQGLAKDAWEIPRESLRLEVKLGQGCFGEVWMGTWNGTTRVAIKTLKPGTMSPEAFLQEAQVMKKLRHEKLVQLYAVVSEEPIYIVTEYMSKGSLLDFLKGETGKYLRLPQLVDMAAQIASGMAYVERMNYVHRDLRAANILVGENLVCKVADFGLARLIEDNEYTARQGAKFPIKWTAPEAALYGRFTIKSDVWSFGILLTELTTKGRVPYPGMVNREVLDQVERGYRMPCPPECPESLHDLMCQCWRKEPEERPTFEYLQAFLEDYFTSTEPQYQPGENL

Structure (SMILES)	IC50 (c-Src kinase) [µM]	other results
CN1CCN(c2ccc(-c3cnn4c(N)c(-c5ccccc5)cnc34)cc2)CC1 [Example 7, 3-[4-(4-Methyl-piperazin-1-yl)-phenyl]-6-phenyl-pyrazolo[1,5-a]pyrimidin-7-ylamine]	< 10	
CN1CCN(c2cccc(-c3cnn4c(N)c(-c5ccsc5)cnc34)c2)CC1 [Example 49, 3-[3-(4-Methyl-piperazin-1-yl)-phenyl]-6-thiophen-3-yl-pyrazolo[1,5-a]pyrimidin-7-ylamine]		IC50 (human Flt-3): < 10 µM
CN1CCN(c2ccc(-c3cnn4c(N)c(-c5csc6ccccc56)cnc34)cc2)CC1 [Example 19, 6-Benzo[b]thiophen-3-yl-3-[4-(4-methyl-piperazin-1-yl)-phenyl]-pyrazolo[1,5-a]pyrimidin-7-ylamine]	< 10	IC50 (c-Abl kinase): < 10 µM
Nc1c(-c2c(Cl)cccc2Cl)cnc2c(-c3ccccc3)cnn12 [Example 16, 6-(2,6-Dichloro-phenyl)-3-phenyl-pyrazolo[1,5-a]pyrimidin-7-ylamine]		IC50 [1]: < 10 µM
COc1ccccc1-c1cnc2c(-c3ccc(N4CCN(C)CC4)cc3)cnn2c1N [Example 27, 6-(2-Methoxy-phenyl)-3-[4-(4-methyl-piperazin-1-yl)-phenyl]-pyrazolo[1,5-a]pyrimidin-7-ylamine]	< 10	
